According to patent publication US20180259530A1, “Method and kit for testing chronic myelogenous leukemia (CML), method for isolating TKI-resistant CML cells, and agent for reducing TKI-resistance of CML and method for screening the same” (The University of Tokyo, priority 2017, published 2018):

What was measured:
Format in all cases: cell-based, human
[1] = tested on: mRNA transcribed from the ADAM8 gene in HL60AML cell line; assay: ADAM8 gene expression inhibition by shRNA (mRNA amount); details: HL60, lentiviral shRNA, 72 hours puromycin selection; non-target_shRNA defined as 1; FIG. 18
Protocol: After extraction of total RNA with RNAeasy reagent (QIAGEN), reverse transcription was performed with ReverTra Ace qPCR RT Master Mix (TOYOBO). The primer sequences used for PCR are shown below. Real-time quantitative PCRs were carried out in ABI-7000 Sequencing System with THUNDERBIRD SYBR qPCR Mix, following the manufacturer's instructions (TOYOBO). Each assay was performed in triplicate. 18S rRNA and β-actin were used as endogenous controls.
The amount of mRNA transcribed from the ADAM8 gene in the cells was measured after treatment of an HL60AML cell line with ADAM8_shRNA 1 (SEQ ID NO: 45), ADAM8_shRNA 2 (SEQ ID NO: 46) and ADAM8_shRNA_3 (SEQ ID NO: 47). The target sequences of ADAM8_shRNA_1, ADAM8_shRNA_2 and ADAM8_shRNA_3 are listed as SEQ ID NO: 49, 50 and 51, respectively. Specifically, pLKO.1-puro-CMV-tGFP (Sigma Aldrich Japan) incorporating DNA encoding shRNA was transferred into HEK293 cells together with pMISSION GAG POL (Sigma Aldrich Japan) and pMISSION VSV-G (Sigma Aldrich Japan), to obtain an shRNA-expressing lentivirus. The obtained lentivirus was used to infect HL60, 1 μg/ml puromycin was used for 72 hours of selection, and ADAM8 gene expression in the selected cells was analyzed. The expression level of the ADAM8 gene when using non-target_shRNA that targets a non-ADAM8 gene (SEQ ID NO: 48, target sequence: SEQ ID NO: 52) (indicated as “non-target” in the graph) was defined as 1.

[2] = tested on: CD34+ADAM8+ CML cells of CML-CP patient; assay: Cell viability assay of CD34+ADAM8+ and CD34+ADAM8- cell fractions with imatinib; details: 48 hours exposure to imatinib; FIG. 11
Protocol: (§1) The cell viability assay and apoptosis assay were carried out according to the method described in Ma, L. et al., Sci. Transl. Med. 6, 252ral21(2014).

CML-pre-HPCs = assay: Apoptosis assay in hematopoietic differentiation of CML-iPSCs; details: 5 μM imatinib, 48 hours from medium exchange; FIG. 5
[3] = tested on: CD34+ADAM8+ CML cells of CML-CP patient; assay: Apoptosis assay of CD34+ADAM8+ and CD34+ADAM8- cell fractions with imatinib; details: 48 hours exposure to imatinib; FIG. 12
Protocol: as §1

[4] = tested on: CD34+ADAM8+ cells (CML-CP9- and CML-CP23-derived); assay: Cell viability assay with imatinib plus GM6001; details: 1.0 μM imatinib and 2.5 μM GM6001 vs 1.0 μM imatinib alone; FIG. 21, 22
Protocol: as §1

CD34+ADAM8+ cells = assay: Cell viability assay with GM6001, CD34+ADAM8+ cells; details: GM6001 2.5 μM; FIG. 20
Protocol: as §1
(§2) CD34+ADAM8+ cells and CD34+ADAM8− cells were used for a cell viability assay in the absence of GM6001 (Merck Millipore) and in the presence of GM6001 at specific concentrations (2.5 μM, 5 μM, 20 μM). […] GM6001 was confirmed to have no effect on the cell viability of either CD34+ADAM8+ cells or CD34+ADAM8− cells, at a concentration of 2.5 μM.

CD34+ADAM8- cells = assay: Cell viability assay with GM6001, CD34+ADAM8- cells; details: GM6001 2.5 μM; FIG. 20
Protocol: as §1, §2

Compound: ADAM8_shRNA_2: shRNA that inhibits expression of the ADAM8 gene, SEQ ID NO: 46, target sequence SEQ ID NO: 50 (CCGGGGGCCUGGAGAUUUGGAAUAGCUCGAGCUAUUCCAAAUCUCCAGGCCCUUUUU)
- knockdown of ADAM8 gene expression (mRNA) [1]: confirmed to have the ability to knockdown ADAM8

Compound: ADAM8_shRNA_1: shRNA that inhibits expression of the ADAM8 gene, SEQ ID NO: 45, target sequence SEQ ID NO: 49 (CCGGGGACAAGCUAUAUCAGAAACUCUCGAGAGUUUCUGAUAUAGCUUGUCCUUUUU)
- knockdown of ADAM8 gene expression (mRNA) [1]: confirmed to have the ability to knockdown ADAM8

Compound: Cc1ccc(NC(=O)c2ccc(CN3CCN(C)CC3)cc2)cc1Nc1nccc(-c2cccnc2)n1 [imatinib]
- imatinib resistance (cell viability) of ADAM8+ CML cells compared to ADAM8- CML cells [2]: greater imatinib resistance
- apoptosis induction in CML-pre-HPCs (CML-pre-HPCs): not induced to undergo apoptosis
- apoptosis induced by imatinib in ADAM8+ CML cells compared to ADAM8- CML cells [3]: suppressed

Compound: ADAM8_shRNA_3: shRNA that inhibits expression of the ADAM8 gene, SEQ ID NO: 47, target sequence SEQ ID NO: 51 (CCGGGGAAUAGUCAGGACAGGUUCCCUCGAGGGAACCUGUCCUGACUAUUCCUUUUU)
- knockdown of ADAM8 gene expression (mRNA) [1]: confirmed to have the ability to knockdown ADAM8

Compound: CNC(=O)[C@H](Cc1c[nH]c2ccccc12)NC(=O)[C@@H](CC(=O)NO)CC(C)C [GM6001, (2R)—N^4-Hydroxy-N^1-[(1S)-2-(1H-indol-3-ylmethyl)-2-(methylamino)-2-oxoethyl]-2-(2-methylpropyl)butanediamide]
- TKI resistance (cell viability) on inhibition of ADAM8 activity [4]: TKI resistance is lowered
- effect on cell viability of CD34+ADAM8+ cells (CD34+ADAM8+ cells): no effect
- effect on cell viability of CD34+ADAM8- cells (CD34+ADAM8- cells): no effect
